target: Endoplasmin (Canis lupus familiaris, UniProt P41148); test: Fluorescence Polarization Assay: The assay was performed in 96-well black, flat-bottom plates with a final volume of 100 μL. 25 μL of assay buffer (20 mM HEPES, pH 7.3, 50 mM KCl, 5 mM MgCl2, 20 mM Na2MoO4, 2 mM DTT, 0.1 mg/mL BGG, and 0.01% NP-40) were added, followed by 25 μL of assay buffer containing 6 nM FITC-GDA (fluorescent tracer, stock in DMSO, diluted in assay buffer) and 50 μL of assay buffer containing 10 nM of either Grp94 or Hsp90α were added to each well. For each plate, wells containing buffer only (background), tracer in buffer only (low polarization control) and protein, tracer, and 1% DMSO (final concentration, high polarization control) were included. Compounds were then added with a final concentration of DMSO=1%. Plates were incubated at 4° C. with rocking for 24 h. […] Polarization values were correlated to % tracer bound and compound concentrations.
Sequence (P41148 whole entry): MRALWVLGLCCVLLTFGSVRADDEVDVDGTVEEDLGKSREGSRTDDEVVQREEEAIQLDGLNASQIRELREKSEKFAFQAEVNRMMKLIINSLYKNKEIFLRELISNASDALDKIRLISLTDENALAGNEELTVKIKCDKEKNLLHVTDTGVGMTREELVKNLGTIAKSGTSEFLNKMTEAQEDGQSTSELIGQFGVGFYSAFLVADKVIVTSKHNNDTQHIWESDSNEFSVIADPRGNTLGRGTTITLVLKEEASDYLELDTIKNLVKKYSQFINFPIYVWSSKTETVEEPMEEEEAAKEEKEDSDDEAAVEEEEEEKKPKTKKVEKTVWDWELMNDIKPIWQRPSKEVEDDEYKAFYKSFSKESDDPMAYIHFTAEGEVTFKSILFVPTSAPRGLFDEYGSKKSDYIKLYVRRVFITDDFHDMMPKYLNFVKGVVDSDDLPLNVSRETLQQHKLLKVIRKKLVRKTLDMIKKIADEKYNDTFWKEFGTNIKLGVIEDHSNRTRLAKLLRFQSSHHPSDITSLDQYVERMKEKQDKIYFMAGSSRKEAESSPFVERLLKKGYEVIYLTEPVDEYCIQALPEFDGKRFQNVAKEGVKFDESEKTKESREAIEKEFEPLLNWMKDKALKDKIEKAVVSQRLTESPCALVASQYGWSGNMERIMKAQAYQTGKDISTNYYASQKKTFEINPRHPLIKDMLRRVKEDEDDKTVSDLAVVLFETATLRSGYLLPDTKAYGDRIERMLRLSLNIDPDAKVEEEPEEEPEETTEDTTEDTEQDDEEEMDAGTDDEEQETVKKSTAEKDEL

| Kd [µM] | Structure (SMILES) |
| --- | --- |
| 0.68 | COC(=O)c1c(O)cc(O)c(Cl)c1CCc1ccc(OC)cc1Cc1ccccc1 |
| 0.54 | COC(=O)c1c(O)cc(O)c(Cl)c1CCc1cccc(O)c1Cc1ccccc1 |
| 4.2 | COC(=O)c1c(O)cc(O)c(Cl)c1CCc1ccccc1Cc1ccc(Cl)cc1 |
| 0.33 | COC(=O)c1c(O)cc(O)c(Cl)c1CCc1ccc(O)cc1Cc1ccccc1 |
| 0.24 | COC(=O)c1c(O)cc(O)c(Cl)c1CCc1ccc(N)cc1Cc1ccccc1 |
| 0.45 | COC(=O)c1c(O)cc(O)c(Cl)c1CCc1cc(OC)ccc1Cc1ccccc1 |

Second part, the molecule before the results:

| Structure (SMILES) | Kd [µM] |
| --- | --- |
| CCOc1ccccc1Cc1ccccc1CCc1c(Cl)c(O)cc(O)c1C(=O)OC | 6.1 |
| COC(=O)c1c(O)cc(O)c(Cl)c1CCc1cc(N)ccc1Cc1ccccc1 | 0.28 |
| COC(=O)c1c(O)cc(O)c(Cl)c1CCc1ccccc1Cc1ccccc1Cl | 5.5 |
| COC(=O)c1c(O)cc(O)c(Cl)c1CCc1ccccc1Cc1cccc(Cl)c1 | 11.9 |
| COC(=O)c1c(O)cc(O)c(Cl)c1CCc1cccc(OC)c1Cc1ccccc1 | 0.73 |
| COC(=O)c1c(O)cc(O)c(Cl)c1CCc1ccccc1Cc1ccccc1OC | 7.8 |
| COC(=O)c1c(O)cc(O)c(Cl)c1CCc1cccc(Cc2ccccc2)c1 | 10.4 |

— ChEMBL document CHEMBL5728503, “Second generation GRP94-selective inhibitors” (2021)
